Measured values from patent US20250011881A1, “MYC-HSF1 DUAL AMPLIFICATION AS A BIOMARKER FOR CANCER TREATMENT” (The Trustees of Indiana University, priority 2023, published 2025).
Several values for one entry are separate records, joined by “and”; a condition that tells them apart may be missing. Equal values may be shown once. Where a name gives a salt, the structure may show the parent alone.

System: ovarian cancer cells with (OVCAR8, OVCAR4) or without (OVSAHO, CAOV3) MYC-HSF1 amplification
Experiment: Epigenetic inhibitor drug screen, cell viability (Cell Titer Blue)
Type: cell-based
Conditions: not given

In order of falling “Non Amp - AMP (POC) 10 uM” value:
1. CCS(=O)(=O)Nc1ccc2c(c1)/C(=C(/Nc1ccc(CN3CCCCC3)cc1)c1ccccc1)C(=O)N2 [Hesperadin]  39.85 POC
2. Cl.Cl.c1cc(-c2cnn3cc(-c4ccc(OCCN5CCCCC5)cc4)cnc23)ccn1 [Dorsomorphin 2HCl]  15.62 POC
3. CN(C)CCCn1cc(C2=C(c3c[nH]c4ccccc34)C(=O)NC2=O)c2ccccc21 [GF 109203X]  3.766 POC
4. Cl.Cl.c1ccc([C@@H]2C[C@H]2NC2CCNCC2)cc1 [GSK-LSD1 2HCl]  2.922 POC
5. O=C(O)CCNc1cc(N2CCc3ccccc3CC2)nc(-c2ccccn2)n1 [GSK J1]  1.38 POC

Same assay, conditions: 10 uM, 48 hrs; average relative cell viability (vs 1% DMSO) of non-amplified cells (OVSAHO, CAOV3) minus that of MYC-HSF1 amplified cells (OVCAR8, OVCAR4); positive = greater response in amplified cells

In order of falling “Non Amp - AMP (POC) 10 uM” value:
1. CS(=O)(=O)c1ccc(-c2cnc(NCc3ccco3)n3cnnc23)cc1 [EED226]  32.64 POC
2. CCC(=O)N1CCOc2c(cc(-c3ccc(OC)c(OC)c3)cc2OC[C@H]2CCCN(C)C2)C1 [I-CBP112 (hydrochloride)]  20.48 POC
3. O=C(NO)c1ccc(CC(=O)N(CCO)c2ccccc2)cc1 [HPOB]  18.14 POC
4. O=S(=O)(c1cccc2cnccc12)N1CCCNCC1 [Fasudil (HA-1077) HCl, Fasudil]  15.8 POC
5. O=C(Nc1nc2cccc(-c3ccc(CN4CCS(=O)(=O)CC4)cc3)n2n1)C1CC1 [GLPG0634]  15.53 POC
6. CCC(CC)n1ccc2c(C(=O)NCc3c(C)cc(C)[nH]c3=O)cc(C#N)cc21 [EI1]  15.27 POC
7. Cc1cc(C)c(CNC(=O)c2cc(-c3ccc(CN4CCOCC4)cc3)cc3c2cnn3C2CCCC2)c(=O)[nH]1 [EPZ005687]  15.13 POC
8. c1ccc([C@@H]2C[C@H]2NC2CCNCC2)cc1 [GSK-LSD1 (hydrochloride)]  14.88 POC
9. COc1ccc2c(c1)c(C1=C(c3c[nH]c4ccccc34)C(=O)NC1=O)cn2CCCN(C)C [Go 6983]  14.34 POC
10. O=c1oc2c(O)c(O)cc3c(=O)oc4c(O)c(O)cc1c4c23 [Ellagic acid]  13.8 POC
11. Cn1cc(C2=C(c3cn(C4CCN(Cc5ccccn5)CC4)c4ccccc34)C(=O)NC2=O)c2ccccc21 [Enzastaurin (LY317615), Enzastaurin]  13.08 POC
12. Cl.O=S(=O)(c1cccc2cnccc12)N1CCNCC1 [HA-100 (hydrochloride)]  12.45 POC
13. COc1ccccc1C(=O)Nc1cc2c(cc1N1CCCCC1)n(C)c(=O)n2C [GSK 5959]  10.99 POC
14. CC(C)N(CCCNC(=O)Nc1ccc(C(C)(C)C)cc1)C[C@H]1O[C@@H](n2ccc3c(N)ncnc32)[C@H](O)[C@@H]1O.O=CO [EPZ004777 (formate)]  10.91 POC
15. O=c1c(O)c(-c2ccc(O)c(O)c2)oc2cc(O)ccc12 [Fisetin]  10.02 POC
16. O=C(O)CCNc1cc(N2CCc3ccccc3CC2)nc(-c2ccccn2)n1 [GSK-J1 (sodium salt)]  8.487 POC
17. c1cc(-c2cnn3cc(-c4ccc(OCCN5CCCCC5)cc4)cnc23)ccn1 [Dorsomorphin (Compourd C), Dorsomorphin]  7.913 POC
18. CC(C)N(CCCNC(=O)Nc1ccc(C(C)(C)C)cc1)C[C@H]1O[C@@H](n2ccc3c(N)ncnc32)[C@H](O)[C@@H]1O [EPZ004777]  6.632 POC
19. C=C(C)[C@@H](CC=C(C)C)C[C@@]12C[C@@H](CC=C(C)C)C(C)(C)[C@@](CC=C(C)C)(C(=O)C(C(=O)c3ccc(O)c(O)c3)=C1O)C2=O [Garcinol]  6.401 POC
20. Cn1c2ccccc2c2c3c(c4c5ccccc5n(CCC#N)c4c21)CNC3=O [Go 6976]  5.045 POC
21. O=C(O)CCNc1cc(N2CCc3ccccc3CC2)nc(-c2cccnc2)n1 [GSK J2]  0.5701 POC
22. COc1cc(C(=O)N2CC[C@@H](O)[C@@H](N)C2)cc2nc(-c3cc4ccccc4n3CC3CC3)n(C)c12.Cl [GSK484 (hydrochloride)]  0.3153 POC
23. CC(=O)N1c2ccc(-c3ccc(C(=O)O)cc3)cc2[C@H](Nc2ccc(Cl)cc2)C[C@@H]1C [GSK1324726A]  0.1295 POC
24. Cc1cc(C)c(CNC(=O)c2cc(-c3ccc(N4CCN(C)CC4)nc3)cc3c2c(C)cn3C(C)C)c(=O)[nH]1 [GSK503]  −0.09843 POC
25. Cc1nc(C(=O)NCC(=O)O)c(O)c2ccc(Oc3ccccc3)cc12 [FG-4592 (ASP1517)]  −0.1816 POC
26. NC(=O)C1CCCc2c1[nH]c1ccc(Cl)cc21 (stereo not shown) [EX 527 (SEN0014196)]  −0.5892 POC
27. O=C1Nc2cc(Br)ccc2/C1=C1/Nc2ccccc2/C1=N\O [GSK-3 Inhibitor IX (BIO)]  −1.008 POC
28. CS(=O)(=O)c1ccc(-c2nnc(/C=C/c3nnc(-c4ccc(C#N)cc4)o3)n2-c2ccccc2Cl)nc1 [G007-LK]  −1.13 POC
29. O=C(O)CNC(=O)c1nc(Cl)c2ccccc2c1O [FG2216]  −1.816 POC
30. CC(C)(CCCCCC(O)CCCCCC(C)(C)C(=O)O)C(=O)O [ETC-1002]  −2.506 POC
31. Cc1nc(Nc2cnn(C3CCNCC3)c2)nc2c1N(C)C(=O)c1cc3ccccc3cc1N2C [HTH-01-015]  −3.924 POC
32. O=C(O)c1ccccc1Nc1cccc(C(F)(F)F)c1 [Flufenamic acid]  −4.318 POC
33. CC(C)c1cccc(=O)c(O)c1 [Hinokitiol]  −6.718 POC
34. CCN(CC)C(=O)/C(C#N)=C/c1cc(O)c(O)c([N+](=O)[O-])c1 [Entacapone]  −6.777 POC
35. CCn1c(-c2nonc2N)nc2c(C#CC(C)(C)O)ncc(OC[C@H]3CCCNC3)c21 [GSK690693]  −7.029 POC
36. N#Cc1ccc(COc2ccc(-c3cccc4nc(NC(=O)C5CC5)nn34)cc2)cn1 [GLPG0634 analogue]  −7.702 POC
37. Cc1cc(Cl)ccc1OCCCC(=O)NO [Droxinostat]  −21.53 POC
38. Cc1cc(Nc2cc(N3CCN(C)CC3)nc(/C=C/c3ccccc3)n2)n[nH]1 [ENMD-2076]  −22.8 POC
39. Cc1cc(Nc2cc(N3CCN(C)CC3)nc(/C=C/c3ccccc3)n2)n[nH]1.O=C(O)C(O)C(O)C(=O)O [ENMD-2076 L-(+)-Tartaric acid]  −24.46 POC
40. O=C1/C(=C/c2ccc(O)c(Br)c2)CCC/C1=C\c1ccc(O)c(Br)c1 [HAT Inhibitor II]  −25.46 POC

Same assay, conditions: 10 uM, 48 hrs; average relative cell viability (vs 1% DMSO) of non-amplified cells (OVSAHO, CAOV3) minus that of MYC-HSF1 amplified cells (OVCAR8, OVCAR4); positive = greater response in amplified cells; 10 µM

In order of rising “Non Amp - AMP (POC) 10 uM” value:
1. CCOC(=O)CCNc1cc(N2CCc3ccccc3CC2)nc(-c2ccccn2)n1.Cl [GSK J4 HCl]  −10.21 POC
2. COc1cccc2c1C(=O)c1c(O)c3c(c(O)c1C2=O)C[C@@](O)(C(=O)CO)C[C@@H]3O[C@H]1C[C@H](N)[C@H](O)[C@H](C)O1 [Doxorubicin (Adriamycin) HCl, Doxorubicin]  3.26 POC
3. COc1cccc2c1C(=O)c1c(O)c3c(c(O)c1C2=O)C[C@@](O)(C(=O)CO)C[C@@H]3O[C@H]1C[C@H](N)[C@H](O)[C@H](C)O1 [Doxorubicin]  4.864 POC
4. CCNC(=O)C[C@@H]1N=C(c2ccc(Cl)cc2)c2cc(OC)ccc2-n2c(C)nnc21 [I-BET-762]  5.52 POC
5. CCN(c1cc(-c2ccc(CN3CCOCC3)cc2)cc(C(=O)NCc2c(C)cc(C)[nH]c2=O)c1C)C1CCOCC1 [EPZ6438]  8.683 POC
6. COc1cc2c(cc1-c1c(C)noc1C)ncc1[nH]c(=O)n([C@H](C)c3ccccn3)c12 [I-BET151]  21.72 POC
7. Nc1ccn([C@@H]2O[C@H](CO)[C@@H](O)C2(F)F)c(=O)n1 [Gemcitabine]  28.61 POC

In the case of `O=C(O)c1ccc(CN2CCC(CN[C@@H]3C[C@H]3c3ccccc3)CC2)cc1` [GSK2879552], the “Non Amp - AMP (POC) 10 uM” value is reported as 13.47 POC and 12.35 POC.

Same assay, conditions: 10 uM, 48 hrs; average relative cell viability (vs 1% DMSO) of non-amplified cells (OVSAHO, CAOV3) minus that of MYC-HSF1 amplified cells (OVCAR8, OVCAR4); positive = greater response in amplified cells; HCl, 10 µM

With `Nc1ccn([C@@H]2O[C@H](CO)[C@@H](O)C2(F)F)c(=O)n1` [Gemcitabine HCl] the “Non Amp - AMP (POC) 10 uM” value was 8.319 POC.

Same assay, conditions: 10 uM, 48 hrs; average relative cell viability (vs 1% DMSO) of non-amplified cells (OVSAHO, CAOV3) minus that of MYC-HSF1 amplified cells (OVCAR8, OVCAR4); positive = greater response in amplified cells; listed as EPZ-6438, 10 µM

In the case of `CCN(c1cc(-c2ccc(CN3CCOCC3)cc2)cc(C(=O)NCc2c(C)cc(C)[nH]c2=O)c1C)C1CCOCC1` [EPZ6438], the “Non Amp - AMP (POC) 10 uM” value is reported as 3.862 POC.

Same assay, conditions: 10 uM, 48 hrs; average relative cell viability (vs 1% DMSO) of non-amplified cells (OVSAHO, CAOV3) minus that of MYC-HSF1 amplified cells (OVCAR8, OVCAR4); positive = greater response in amplified cells; listed as GSK-J4 (hydrochloride), 10 µM

With `CCOC(=O)CCNc1cc(N2CCc3ccccc3CC2)nc(-c2ccccn2)n1.Cl` [GSK J4 HCl] the “Non Amp - AMP (POC) 10 uM” value was −13.06 POC.

Same assay, conditions: 10 uM, 48 hrs; average relative cell viability (vs 1% DMSO) of non-amplified cells (OVSAHO, CAOV3) minus that of MYC-HSF1 amplified cells (OVCAR8, OVCAR4); positive = greater response in amplified cells; listed as I-BET151 (GSK1210151A), 10 µM

With `COc1cc2c(cc1-c1c(C)noc1C)ncc1[nH]c(=O)n([C@H](C)c3ccccn3)c12` [I-BET151] the “Non Amp - AMP (POC) 10 uM” value was 3.072 POC.

Same assay, conditions: 10 uM, 48 hrs; average relative cell viability (vs 1% DMSO) of non-amplified cells (OVSAHO, CAOV3) minus that of MYC-HSF1 amplified cells (OVCAR8, OVCAR4); positive = greater response in amplified cells; listed as I-BET762, 10 µM

In the case of `CCNC(=O)C[C@@H]1N=C(c2ccc(Cl)cc2)c2cc(OC)ccc2-n2c(C)nnc21` [I-BET-762], the “Non Amp - AMP (POC) 10 uM” value is reported as −1.572 POC.
